“Also recorded” adds a separate entry of the source.
Experiments:
RelA, RelB, TBK1 = assay: pRelA, pRelB and p-TBK1 in lung DC subsets after intranasal CDG, flow cytometry; type: in vivo, mice
TNFR2 = type: in vivo, mice
mTNF = assay: Cell surface mTNF expression on lung DCs detected with TNFR2-Fc recombinant protein; type: in vivo; conditions: WT mice, i.n. CDG 16 hours
Method: We intranasally administered CDG to WT mice for 16 hours and detected cell surface mTNF expression using […] recombinant protein (FIG. 8A).
The following Abs from Biolegend were used in the flow cytometry: CD80 (16-10A1), CD86 (GL1), CD11B (M1/70), CD11C (N418), FcεRIa (MAR-1), MHC II (M5/114.15.2), CD103(2E7), CD24 (m1/69), CD64 (x54-5/7.1), CCR7 (4B12), TNF (MP6-XT22), TNFR2 (TR75-89), PD-L1 (10F.9G2), BTLA (8F4), PD-L2 (TY25), CD301b (URA-1), CX3CR1 (SA011F11), CD172a (P84), CD44 (IM7). The following Abs were from Cell Signaling: p-TBK1 (ser172, d52c2), p-RelB (ser552, d41b9), p-RelA (ser536, cat #4887S). The following reagents were from Sino Biological: TNFR2 Ab (cat #50128-R112-A), TNFR2-Fc (mouse TNFR2 extracellular domain, Met 1-Gly 258, was fused with the Fc region of human IgG1 at the C-terminus, cat #50128-M02H), human IgG1 Fc (cat #10702-HNAH). Alexa Fluor®488 mouse anti-human IgG1 Fc was from Invitrogen (cat #A-10631). FITC-CDG (2′-Fluo-AHC-CDG) was from Biolog (cat #F009). Cell sorting was performed on the BD FACSAriaIII Flow Cytometer and Cell Sorter. After sorting, dendritic cells were CFSE labeled, according to the protocol from the manufacturer (Invitrogen).

lung TNF [1] = conditions: administered intranasally; cited from earlier work
lung DCs = assay: Lung DC / alveolar macrophage maturation (CD86, CCR7) after intranasal CDG, flow cytometry; type: in vivo, mice
[2] = system: PspA-specific Th1, Th2, Th17 responses; assay: Ex vivo recall of PspA-specific Th responses in lung cells and splenocytes of immunized mice; conditions: immunized IRF4fl/flCD11ccre mice
Method: (§1) Groups of mice (4 per group) were intranasally vaccinated with CDG (5 μg, Invivogen, cat #vac-cdg) adjuvanted PspA (2 μg, BEI Resources) or PspA alone^17. Mice were immunized twice at 14 days interval. For intranasal vaccination, animals were anesthetized using isoflurane in an E-Z Anesthesia system (Euthanex Corp, Palmer, Pa.). PspA, with or without CDG was administered in 20 μl saline. Sera were collected 14 days after the last immunization. The PspA-specific Abs were determined by ELISA. Secondary Abs used were anti-mouse IgG1-HRP (Southern Biotech, cat #1070-05), anti-mouse IgG2C-HRP (Southern Biotech, cat #1079-05), and anti-mouse IgA-HRP (Southern Biotech, cat #1040-05). To determine Ag-specific Th response, splenocytes from PspA or CDG+PspA immunized mice were stimulated with 5 μg/ml PspA for four days in culture. Th1, Th2, and Th17 cytokines were measured in the supernatant by ELISA.

lung TNF [3] = assay: Detection of lung cytokine production after intranasal CDG (ELISA of lung homogenates); type: in vivo, mice
Method: Mice were intranasally administered 5 μg CDG, then sacrificed after 5 hrs by C02 asphyxiation^17. Lungs were perfused with cold PBS. The harvested lungs were washed with PBS once, then stored in 0.7 ml Tissue protein extraction reagent (T-PER) (Thermo Scientific, cat #78510) containing protease inhibitors (Roche, cat #11836153001) at −80° C. Later, the lung was thawed on ice and homogenized with Minilys® (Precellys, 5,000 RPM for 30 sec) using Precellys lysing kit (Precellys, cat #KT03961). Lung homogenates were transferred to a 1.5 ml tube and spun at 14,000 g for 30 min at 4° C. The supernatant was collected and analyzed for TNF production by ELISA (eBioscience, cat #88-7324).

[4] = cited from earlier work
anti-PspA IgG and IgA = assay: Intranasal CDG/PspA immunization: PspA-specific antibodies in serum and BALF by ELISA; type: in vivo, mice
Method: as §1

moDCs = assay: Antigen presentation by lung moDCs after intranasal CDG and Eα-OVA (YAE mAb); type: in vivo, C57BL/6 mice; conditions: CDG and Eα-OVA i.n.
Source text: How does non-migratory moDCs (FIGS. 1D & 12B)^25,33 promote CDG-induced antibody responses? moDCs were efficient at antigen processing (FIG. 8D). We first asked if they presented antigen on cell surface. We intranasally administered C57BL/6 mice with CDG and Eα-OVA, and detected I-A^b/Eα^+ cells with the YAE mAb. Indeed, CDG increased YAE^+ moDCs in vivo (FIG. 9A).

[5] = system: H5N1 influenza, Acinetobacter baumannii, Staphylococcus aureus, Klebsiella pneumoniae and Streptococcus pneumoniae; conditions: cited from earlier work

## Nc1nc2c(ncn2[C@@H]2O[C@@H]3COP(=O)(O)O[C@H]4[C@@H](O)[C@H](n5cnc6c(=O)[nH]c(N)nc65)O[C@@H]4COP(=O)(O)O[C@H]3[C@H]2O)c(=O)[nH]1 [CDG, cyclic di-GMP]
RelA, RelB, TBK1; TNFR2−/− mice
  TBK1 activation (p-TBK1) in cDC2: activated
RelA, RelB, TBK1; i.n. CDG
  RelA activation in lung cDC1: activated RelA
  RelA and RelB activation in lung moDCs: activated both RelA and RelB
  RelB activation in lung cDC2: activated RelB; also recorded: further activate RelB
TNFR2; WT mice
  TNFR2 expression on moDCs: induced
TNFR2; WT mice, i.n. CDG 16 hrs
  TNFR2 expression on lung cDC1: dramatically increased
TNFR2; cDC2 subsets transferred into MPYS−/− mice, CDG i.n. 16 hrs
  PD-L1 expression on transferred TNFR2+ and TNFR2− cDC2: did not affect
mTNF
  mTNF expression on TNFR2+ cDC2: expressed little mTNF
  mTNF expression on TNFR2− cDC2: main mTNF^+ cDC2 cells
Lung TNF [1]
  Lung production of TNF, IL-1β and IL-10: induced
Lung DCs; Batf3−/− mice
  CD86 on lung moDCs: unaltered
Lung DCs; IRF4fl/flCD11ccre mice
  CD86 on lung moDCs: failed to upregulate CD86
Lung DCs; MPYSfl/flLysMcre mice
  Activation of lung DCs (CD86): unaltered
  CD86 expression on moDCs: normal levels of CD86 expression
Lung DCs; RelBfl/flCD11ccre mice
  CD86 on lung cDC1: upregulated CD86
  CD86 on lung cDC2: failed to upregulate CD86
  CD86 on lung moDCs: induced
Lung DCs; TNFR2−/− mice
  CD86 and CCR7 expression on cDC1: induced
  CD86 on lung moDCs: did not upregulate CD86
  CD86 or CCR7 expression in lung cDC2: did not enhance
Lung DCs; WT mice, CDG treatment i.n.
  CD86 expression on alveolar macrophages: did not increase expression of CD86
Lung DCs; WT mice, i.n. CDG
  CCR7 expression on lung moDCs: did not increase CCR7
  CD86 and CCR7 expression in lung cDC1 and cDC2: increased
  CD86 expression on lung moDCs: increased expression of CD86
  Migration of activated moDCs to lung draining lymph nodes: did not migrate to dLNs
[2]
  PspA-specific Th1, Th2, Th17 responses, ex vivo recall in lung cells and splenocytes: did not show PspA-specific Th1, Th2 or Th17 responses
Lung TNF [3]; Batf3−/− mice (lack cDC1)
  CDG-induced lung MCP-1 production: largely absent
Lung TNF [3]; IRF4fl/flCD11ccre mice (lack cDC2)
  CDG-induced lung production of TNF, IL-1β and IL-12p70: dramatically reduced
Lung TNF [3]; TBK1fl/flVavCre mice
  CDG-induced lung TNF production: dramatically reduced
Lung TNF [3]; TNFR2−/− mice
  Lung TNF: induced
[4]; intranasal adjuvant
  Over-inflammatory responses in the lung: does not induce over-inflammatory responses
[4]; mice
  Acute toxicity as a mucosal adjuvant: does not cause acute toxicity
anti-PspA IgG and IgA; IRF4fl/flCD11ccre mice, PspA with CDG i.n.
  Anti-PspA Abs in BALF and serum: did not induce
anti-PspA IgG and IgA; TNFR1−/− mice
  Humoral and cellular immune responses: reduced humoral and cellular immune responses
anti-PspA IgG and IgA; TNFR2−/− mice
  Adjuvant activity (humoral and cellular responses): completely lost its adjuvant activity
moDCs
  YAE+ moDCs (I-Ab/Eα presentation): increased
[5]; MPYS−/− mice
  Adjuvant activity / response in MPYS−/− mice: do not respond
[5]; animal models
  Cancer vaccine adjuvant activity: showed cancer vaccine adjuvant activity
[5]; mice
  Activation of Th1 and Th2 immune response vs LPS, CpG ODN or aluminum salt based adjuvant: more potent activator
